Eight compounds from patent publication US20110028686A1, “Protein binding miniature proteins” (Yale University, priority 2000, published 2011) can be followed below.

As a reminder, the Kd is the constant that tells how readily two partners part at equilibrium.

Each structure is given as a SMILES string. Square brackets hold non-standard residues; d marks the D form. Peptide text beside a SMILES is read from it. * marks the point of attachment. Fluorescein(5-NHCOCH2) = O=C(C*)Nc1ccc2c(c1)C(=O)OC21c2ccc(O)cc2Oc2cc(O)ccc21; pS = N[C@@H](COP(=O)(O)O)C(=O)O; Sar = CNCC(=O)O

One test addresses catalytic subunit of PKA (Homo sapiens, UniProt P17612). Put plainly: Fluorescence polarization, affinity for PKA catalytic subunit. In kind it is binding. The conditions noted are these: presence of 100 μM ATP. On the technique in general: Fluorescence polarisation rises when a labelled molecule tumbles more slowly, as on binding a larger partner.
The target of the next test is T1, CBP KIX wild type (Mus musculus, UniProt P45481).
T1 construct: made in house; host or cells: E. coli BL21(DE3) pArg
T1 sequence (P45481 586-665 limits assumed): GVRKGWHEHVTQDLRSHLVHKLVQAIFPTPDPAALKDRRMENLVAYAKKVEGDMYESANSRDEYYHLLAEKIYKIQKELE
Put plainly: Equilibrium fluorescence polarization, wild type CBP KIX. The conditions noted are these: 25° C. The test is classed as binding.

In the next test the target is Bcl-2 (Homo sapiens, UniProt P10415). Put plainly: Bcl-2 binding by fluorescence emission of fluorescein-labeled peptide. As to conditions: read-out: Kd for binding to Bcl-2, 4° C., PBS.
Bcl-2, sequence (P10415 1-205): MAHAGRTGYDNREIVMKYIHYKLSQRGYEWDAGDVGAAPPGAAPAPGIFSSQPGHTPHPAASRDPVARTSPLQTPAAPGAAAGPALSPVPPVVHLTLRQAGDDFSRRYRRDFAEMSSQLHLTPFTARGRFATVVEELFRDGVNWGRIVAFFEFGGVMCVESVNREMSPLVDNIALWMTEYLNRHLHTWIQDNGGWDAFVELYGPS

For `CC[C@H](C)[C@H](NC(=O)[C@H](C)NC(=O)[C@H](CC(N)=O)NC(=O)[C@H](CCCNC(=N)N)NC(=O)[C@H](CCCNC(=N)N)NC(=O)CNC(=O)[C@@H](NC(=O)[C@@H](NC(=O)CNC(=O)[C@H](CC(C)C)NC(=O)[C@H](Cc1ccc(O)cc1)NC(=O)[C@@H](NC(=O)[C@H](Cc1ccccc1)NC(=O)[C@H](CC(C)C)NC(=O)[C@H](C)NC(=O)[C@H](Cc1ccc(O)cc1)NC(=O)[C@@H](NC(=O)[C@H](Cc1ccccc1)NC(=O)[C@H](CCCNC(=N)N)NC(=O)[C@@H](NC(=O)[C@H](CC(C)C)NC(=O)[C@H](CC(=O)O)NC(=O)[C@H](CCC(=O)O)NC(=O)[C@@H](NC(=O)[C@@H]1CCCN1C(=O)[C@H](C)NC(=O)[C@H](CC(=O)O)NC(=O)[C@H](CC(=O)O)NC(=O)CNC(=O)[C@@H]1CCCN1C(=O)[C@H](Cc1ccc(O)cc1)NC(=O)[C@@H](NC(=O)[C@@H]1CCCN1C(=O)[C@H](CCC(N)=O)NC(=O)[C@H](CO)NC(=O)[C@@H]1CCCN1C(=O)CN)[C@@H](C)O)C(C)C)[C@@H](C)CC)[C@@H](C)O)[C@@H](C)CC)C(C)C)C(C)C)C(=O)N[C@@H](Cc1c[nH]cn1)C(=O)N[C@@H](CC(=O)O)C(=O)N[C@@H](CSCC(=O)Nc1ccc2c(c1)C(=O)OC21c2ccc(O)cc2Oc2cc(O)ccc21)C(N)=O` [2^Flu] (H-GPSQPTYPGDDAPVEDLIRFTYALFIYLGVVGRRNAIHDC(Fluorescein(5-NHCOCH2))-NH2; N-terminus and C-terminus assumed), the Kd at catalytic subunit of PKA is 570 ± 123 nM. `CC[C@H](C)[C@H](NC(=O)[C@H](Cc1ccc(O)cc1)NC(=O)[C@H](Cc1ccccc1)NC(=O)[C@H](Cc1ccccc1)NC(=O)[C@H](COP(=O)(O)O)NC(=O)[C@H](CC(C)C)NC(=O)[C@H](CCCNC(=N)N)NC(=O)[C@H](CCCNC(=N)N)NC(=O)[C@@H](NC(=O)[C@@H]1CCCN1C(=O)[C@H](C)NC(=O)[C@H](CC(=O)O)NC(=O)[C@H](CC(=O)O)NC(=O)CNC(=O)[C@@H]1CCCN1C(=O)[C@H](Cc1ccc(O)cc1)NC(=O)[C@@H](NC(=O)CN(C)C(=O)[C@H](CCC(N)=O)NC(=O)[C@H](CO)NC(=O)[C@@H]1CCCN1C(=O)CN)[C@@H](C)O)C(C)C)C(=O)N[C@@H](CC(C)C)C(=O)N[C@@H](CC(C)C)C(=O)N[C@@H](CC(=O)O)C(=O)N[C@@H](CC(C)C)C(=O)N[C@@H](Cc1ccc(O)cc1)C(=O)N[C@@H](CC(C)C)C(=O)N[C@@H](CC(=O)O)C(=O)N[C@@H](C)C(=O)N1CCC[C@H]1C(=O)NCC(=O)N[C@H](C(=O)N[C@@H](CSCC(=O)Nc1ccc2c(c1)C(=O)OC21c2ccc(O)cc2Oc2cc(O)ccc21)C(N)=O)C(C)C` [P5Z] (H-GPSQ[Sar]TYPGDDAPVRRL[pS]FFYILLDLYLDAPGVC(Fluorescein(5-NHCOCH2))-NH2): on CBP KIX wild type, the Kd worked out at 800 ± 30 nM. On the same count and under the same terms, with `CC[C@H](C)[C@H](NC(=O)[C@H](Cc1ccc(O)cc1)NC(=O)[C@H](Cc1ccccc1)NC(=O)[C@H](Cc1ccccc1)NC(=O)[C@H](COP(=O)(O)O)NC(=O)[C@H](CC(C)C)NC(=O)[C@H](CCCNC(=N)N)NC(=O)[C@H](CCCNC(=N)N)NC(=O)[C@@H](NC(=O)[C@@H]1CCCN1C(=O)[C@H](C)NC(=O)[C@H](CC(=O)O)NC(=O)[C@H](CC(=O)O)NC(=O)CNC(=O)[C@H](C)NC(=O)[C@H](Cc1ccc(O)cc1)NC(=O)[C@@H](NC(=O)[C@@H]1CCCN1C(=O)[C@H](CCC(N)=O)NC(=O)[C@H](CO)NC(=O)[C@@H]1CCCN1C(=O)CN)[C@@H](C)O)C(C)C)C(=O)N[C@@H](CC(C)C)C(=O)N[C@@H](CC(C)C)C(=O)N[C@@H](CC(=O)O)C(=O)N[C@@H](CC(C)C)C(=O)N[C@@H](Cc1ccc(O)cc1)C(=O)N[C@@H](CC(C)C)C(=O)N[C@@H](CC(=O)O)C(=O)N[C@@H](C)C(=O)N1CCC[C@H]1C(=O)NCC(=O)N[C@H](C(=O)N[C@@H](CSCC(=O)Nc1ccc2c(c1)C(=O)OC21c2ccc(O)cc2Oc2cc(O)ccc21)C(N)=O)C(C)C` [P8A] (H-GPSQPTYAGDDAPVRRL[pS]FFYILLDLYLDAPGVC(Fluorescein(5-NHCOCH2))-NH2) the figure was 1070 ± 80 nM; with `CC[C@H](C)[C@H](NC(=O)[C@H](Cc1ccc(O)cc1)NC(=O)[C@H](Cc1ccccc1)NC(=O)[C@H](Cc1ccccc1)NC(=O)[C@H](COP(=O)(O)O)NC(=O)[C@H](CC(C)C)NC(=O)[C@H](CCCNC(=N)N)NC(=O)[C@H](CCCNC(=N)N)NC(=O)[C@@H](NC(=O)[C@@H]1CCCN1C(=O)[C@H](C)NC(=O)[C@H](CC(=O)O)NC(=O)[C@H](CC(=O)O)NC(=O)CNC(=O)CN(C)C(=O)[C@H](Cc1ccc(O)cc1)NC(=O)[C@@H](NC(=O)[C@@H]1CCCN1C(=O)[C@H](CCC(N)=O)NC(=O)[C@H](CO)NC(=O)[C@@H]1CCCN1C(=O)CN)[C@@H](C)O)C(C)C)C(=O)N[C@@H](CC(C)C)C(=O)N[C@@H](CC(C)C)C(=O)N[C@@H](CC(=O)O)C(=O)N[C@@H](CC(C)C)C(=O)N[C@@H](Cc1ccc(O)cc1)C(=O)N[C@@H](CC(C)C)C(=O)N[C@@H](CC(=O)O)C(=O)N[C@@H](C)C(=O)N1CCC[C@H]1C(=O)NCC(=O)N[C@H](C(=O)N[C@@H](CSCC(=O)Nc1ccc2c(c1)C(=O)OC21c2ccc(O)cc2Oc2cc(O)ccc21)C(N)=O)C(C)C` [P8Z] (H-GPSQPTY[Sar]GDDAPVRRL[pS]FFYILLDLYLDAPGVC(Fluorescein(5-NHCOCH2))-NH2), 780 ± 50 nM; with `CC[C@H](C)[C@H](NC(=O)[C@H](Cc1ccc(O)cc1)NC(=O)[C@H](Cc1ccccc1)NC(=O)[C@H](Cc1ccccc1)NC(=O)[C@H](COP(=O)(O)O)NC(=O)[C@H](CC(C)C)NC(=O)[C@H](CCCNC(=N)N)NC(=O)[C@H](CCCNC(=N)N)NC(=O)[C@@H](NC(=O)[C@@H]1CCCN1C(=O)[C@H](C)NC(=O)[C@H](CC(=O)O)NC(=O)[C@H](CC(=O)O)NC(=O)CNC(=O)[C@@H]1CCCN1C(=O)[C@H](Cc1ccc(O)cc1)NC(=O)[C@@H](NC(=O)[C@@H]1CCCN1C(=O)[C@H](CCC(N)=O)NC(=O)[C@H](CO)NC(=O)[C@@H]1CCCN1C(=O)CN)[C@@H](C)O)C(C)C)C(=O)N[C@@H](CC(C)C)C(=O)N[C@@H](CC(C)C)C(=O)N[C@@H](CC(=O)O)C(=O)N[C@@H](CC(C)C)C(=O)N[C@@H](C)C(=O)N[C@@H](CC(C)C)C(=O)N[C@@H](CC(=O)O)C(=O)N[C@@H](C)C(=O)N1CCC[C@H]1C(=O)NCC(=O)N[C@H](C(=O)N[C@@H](CSCC(=O)Nc1ccc2c(c1)C(=O)OC21c2ccc(O)cc2Oc2cc(O)ccc21)C(N)=O)C(C)C` [Y27A] (H-GPSQPTYPGDDAPVRRL[pS]FFYILLDLALDAPGVC(Fluorescein(5-NHCOCH2))-NH2), 3090 ± 180 nM. For `CC[C@H](C)[C@H](NC(=O)[C@H](CCC(=O)O)NC(=O)[C@H](CC(=O)O)NC(=O)CNC(=O)[C@H](Cc1ccccc1)NC(=O)[C@H](Cc1ccc(O)cc1)NC(=O)[C@H](CCCNC(=N)N)NC(=O)[C@H](CC(C)C)NC(=O)[C@H](CC(C)C)NC(=O)[C@H](CCCNC(=N)N)NC(=O)CNC(=O)[C@@H](NC(=O)[C@H](Cc1ccccc1)NC(=O)[C@H](CCCNC(=N)N)NC(=O)[C@@H](NC(=O)[C@H](CC(C)C)NC(=O)[C@H](CC(=O)O)NC(=O)[C@H](CCC(=O)O)NC(=O)[C@@H](NC(=O)[C@@H]1CCCN1C(=O)[C@H](C)NC(=O)[C@H](CC(=O)O)NC(=O)[C@H](CC(=O)O)NC(=O)CNC(=O)[C@@H]1CCCN1C(=O)[C@H](Cc1ccc(O)cc1)NC(=O)[C@@H](NC(=O)[C@@H]1CCCN1C(=O)[C@H](CCC(N)=O)NC(=O)[C@H](CO)NC(=O)[C@@H]1CCCN1C(=O)CN)[C@@H](C)O)C(C)C)[C@@H](C)CC)C(C)C)C(=O)N[C@@H](CC(N)=O)C(=O)N[C@@H](CCCNC(=N)N)C(=O)N[C@@H](CCCNC(=N)N)C(N)=O` [p4100] (H-GPSQPTYPGDDAPVEDLIRFVGRLLRYFGDEINRR-NH2), the Kd at Bcl-2 stood at 401 ± 40 nM.

On to `CC[C@H](C)[C@H](NC(=O)[C@H](CC(=O)O)NC(=O)[C@H](CC(=O)O)NC(=O)CNC(=O)[C@H](Cc1ccccc1)NC(=O)[C@H](Cc1ccc(O)cc1)NC(=O)[C@H](C)NC(=O)[C@H](CC(C)C)NC(=O)[C@H](CC(C)C)NC(=O)[C@H](CCCNC(=N)N)NC(=O)CNC(=O)[C@@H](NC(=O)[C@H](Cc1ccccc1)NC(=O)[C@H](CCCNC(=N)N)NC(=O)[C@@H](NC(=O)[C@H](CC(C)C)NC(=O)[C@H](CC(=O)O)NC(=O)[C@H](CCC(=O)O)NC(=O)[C@@H](NC(=O)[C@@H]1CCCN1C(=O)[C@H](C)NC(=O)[C@H](CC(=O)O)NC(=O)[C@H](CC(=O)O)NC(=O)CNC(=O)[C@@H]1CCCN1C(=O)[C@H](Cc1ccc(O)cc1)NC(=O)[C@@H](NC(=O)[C@@H]1CCCN1C(=O)[C@H](CCC(N)=O)NC(=O)[C@H](CO)NC(=O)[C@@H]1CCCN1C(=O)CN)[C@@H](C)O)C(C)C)[C@@H](C)CC)C(C)C)C(=O)N[C@@H](CC(N)=O)C(=O)N[C@@H](CCCNC(=N)N)C(=O)N[C@@H](CCCNC(=N)N)C(=O)N[C@@H](Cc1ccc(O)cc1)C(=O)N[C@@H](CSCC(=O)Nc1ccc2c(c1)C(=O)OC21c2ccc(O)cc2Oc2cc(O)ccc21)C(N)=O` [p4101] (H-GPSQPTYPGDDAPVEDLIRFVGRLLAYFGDDINRRYC(Fluorescein(5-NHCOCH2))-NH2), for which, on Bcl-2, the Kd worked out at 811 ± 20 nM. Still for that read-out and setting: with `CC[C@H](C)[C@H](NC(=O)[C@H](Cc1ccc(O)cc1)NC(=O)[C@H](CCCNC(=N)N)NC(=O)[C@H](CC(C)C)NC(=O)[C@H](CCCNC(=N)N)NC(=O)[C@H](CO)NC(=O)[C@@H](NC(=O)[C@H](Cc1ccccc1)NC(=O)[C@H](CCCNC(=N)N)NC(=O)[C@@H](NC(=O)[C@H](CC(C)C)NC(=O)[C@H](CC(=O)O)NC(=O)[C@H](CCC(=O)O)NC(=O)[C@@H](NC(=O)[C@@H]1CCCN1C(=O)[C@H](C)NC(=O)[C@H](CC(=O)O)NC(=O)[C@H](CC(=O)O)NC(=O)CNC(=O)[C@@H]1CCCN1C(=O)[C@H](Cc1ccc(O)cc1)NC(=O)[C@@H](NC(=O)[C@@H]1CCCN1C(=O)[C@H](CCC(N)=O)NC(=O)[C@H](CO)NC(=O)[C@@H]1CCCN1C(=O)CN)[C@@H](C)O)C(C)C)[C@@H](C)CC)C(C)C)C(=O)N[C@@H](C)C(=O)N[C@@H](CC(=O)O)C(=O)N[C@@H](CC(C)C)C(=O)N[C@H](C(=O)N[C@@H](CC(N)=O)C(=O)N[C@@H](CCCNC(=N)N)C(=O)N[C@@H](CCCNC(=N)N)C(=O)N[C@@H](Cc1ccc(O)cc1)C(=O)N[C@@H](CSCC(=O)Nc1ccc2c(c1)C(=O)OC21c2ccc(O)cc2Oc2cc(O)ccc21)C(N)=O)[C@@H](C)CC` [p4102] (H-GPSQPTYPGDDAPVEDLIRFVSRLRYIADLINRRYC(Fluorescein(5-NHCOCH2))-NH2) the figure was 3700 ± 1400 nM.
